Key:
[1] = test system: GLXMA (Glycine max(L.) MERR, soy bean); experiment: Weed control test, foliage treatment (Test Example 1, Table 7); settings: in vivo
[2] = test system: TRZAW (Tritium aestivum L., wheat); experiment: as above; settings: in vivo
[3] = test system: Echinochloa crus-galli var. crus-galli; experiment: Foliage treatment with emulsions, dry rice field conditions (Test Example 2, Table 9); format: in vivo; settings: 150 g a.i./ha; emulsion of Formulation Example 3; division stage 1~2; 20 days after foliage treatment
From the text: (§1) Seeds of rice (Nampyung rice) and barnyard grasses (Echinochloa oryzicola and Echinochloa crus-galli var. crus-galli) were placed in sandy loam of pots, covered with soil, and grown in the dry rice field conditions.
(§2) Rice (6˜6.5-leaf stage, plant height 33.2 cm) and barnyard grasses (Echinochloa oryzicola: division stage 1˜2, plant height 38.0 cm, Echinochloa crus-galli var. crus-galli: division stage 1˜2, plant height 44.1 cm) were subjected to a foliage treatment with emulsions prepared according to Formulation Example 3 by using compounds of Examples 1, 5 and 13 (purity: 99% or more), wherein the emulsions were sprayed to the plants at a dosage of the active compound of 150 g/ha.
(§3) The herbicidal effect on the barnyard grasses and harmful effect on the rice of the test compounds at 20 days and 30 days after the foliage treatment were visually evaluated as in Test Example 1 in comparison with the untreated control, and the results are shown in Table 9.

Echinochloa oryzicola = experiment: as above; format: in vivo; settings: 150 g a.i./ha; emulsion of Formulation Example 3; division stage 1~2; 20 days after foliage treatment
From the text: as §1, §2, §3

Barnyard grass = experiment: Weed control test, 4-leaf stage plants (Test Example 1, Table 8); format: in vivo, Echinoch crus-galli Beauv. var. caudata Kitagawa
From the text: Seeds of rice, wheat, soy bean, barley, corn, common sorgum, barnyard grass, large crabgrass, creek grass, green foxtail and fall panicum were placed in sandy loam in 600 cm^2 pots and covered with soil. […], 2,000 l/ha of an emulsion obtained by diluting with water a mixture of 1 part by weight of a test compound, 5 parts by weight of acetone and 1 part by weight of an emulsifying agent (Tween 80, Junsei) was applied to the surface of the foliage of the plants. The plant damage at 10 days and 20 days after the foliage treatment was visually evaluated from the level of 1 to 100% by comparison with the untreated control: […]

rice (Nampyung rice) = experiment: Foliage treatment with emulsions, dry rice field conditions, harmful effect on rice (Test Example 2, Table 9); format: in vivo; settings: 6~6.5-leaf stage, 150 g a.i./ha, emulsion
From the text: as §1

[4] = test system: ARTHIS (Arthraxon hispidus (Thunb.) Makino, creek grass); experiment: Weed control test, foliage treatment (Test Example 1, Table 7); format: in vivo; settings: Arthraxon hispidus, foliar, read-out: Plant damage (herbicidal activity), visually evaluated, ARTHIS; for pest or weed control at 25 g/ha: 0.025 kg/ha; for pest or weed control at 100 g/ha: 0.1 kg/ha; for pest or weed control at 200 g/ha: 0.2 kg/ha
Summary of the method: (§4)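 Plants are raised from seed in sandy loam in a greenhouse at 20 to 30° C. When barnyard grass reaches the 3-leaf stage, the foliage receives 2,000 l/ha of a diluted emulsion containing compound, acetone and Tween 80. Damage is judged by eye against untreated controls after 10 and 20 days.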

[5] = test system: PANDI (Panium dichotomiflorum Michx, fall panicum); experiment: as above; format: in vivo; settings: Panicum dichotomiflorum, foliar, read-out: Plant damage (herbicidal activity), visually evaluated, PANDI; for pest or weed control at 25 g/ha: 0.025 kg/ha; for pest or weed control at 100 g/ha: 0.1 kg/ha; for pest or weed control at 200 g/ha: 0.2 kg/ha
Summary of the method: as §4

[6] = test system: ZEAMX (Zea mays L., corn); experiment: as above; format: in vivo; settings: Zea mays, foliar, read-out: Plant damage (herbicidal activity), visually evaluated, ZEAMX; for plant injury at 25 g/ha: 0.025 kg/ha; for plant injury at 100 g/ha: 0.1 kg/ha; for plant injury at 200 g/ha: 0.2 kg/ha
Summary of the method: as §4

[7] = test system: SORBI (Andropogon sorghum, common sorgum); experiment: as above; format: in vivo; settings: Sorghum bicolor, foliar, read-out: Plant damage (herbicidal activity), visually evaluated, SORBI; for pest or weed control at 25 g/ha: 0.025 kg/ha; for pest or weed control at 100 g/ha: 0.1 kg/ha; for pest or weed control at 200 g/ha: 0.2 kg/ha
Summary of the method: as §4

[8] = test system: DIGSA (Digitaria Sanguinalis (L.) SCOP, large crabgrass); experiment: as above; format: in vivo; settings: Digitaria sanguinalis, foliar, read-out: Plant damage (herbicidal activity), visually evaluated, DIGSA; for pest or weed control at 25 g/ha: 0.025 kg/ha; for pest or weed control at 100 g/ha: 0.1 kg/ha; for pest or weed control at 200 g/ha: 0.2 kg/ha
Summary of the method: as §4

[9] = test system: ECHOG (Echinoch crus-galli Beauv. var. caudata Kitagawa, barnyard grass); experiment: as above; format: in vivo; settings: Echinochloa crus-galli, foliar, 3-leaf stage, read-out: Plant damage (herbicidal activity), visually evaluated, ECHOG; for pest or weed control at 25 g/ha: 0.025 kg/ha; for pest or weed control at 100 g/ha: 0.1 kg/ha; for pest or weed control at 200 g/ha: 0.2 kg/ha
Summary of the method: as §4

[10] = test system: SETVIR (Setaria viridis (L.) Beauv, green foxtail); experiment: as above; format: in vivo; settings: Setaria viridis, foliar, read-out: Plant damage (herbicidal activity), visually evaluated, SETVIR; for pest or weed control at 25 g/ha: 0.025 kg/ha; for pest or weed control at 100 g/ha: 0.1 kg/ha; for pest or weed control at 200 g/ha: 0.2 kg/ha
Summary of the method: as §4

[11] = test system: ORYSA (Oryza sativa cv. Dongjin, rice); experiment: as above; settings: in vivo
Rice = experiment: Weed control test, 4-leaf stage plants (Test Example 1, Table 8); settings: in vivo
Experimental: Seeds of rice, wheat, soy bean, barley, corn, common sorgum, barnyard grass, large crabgrass, creek grass, green foxtail and fall panicum were placed in sandy loam in 600 cm^2 pots and covered with soil. After keeping the pots in a greenhouse at 20 to 30° C. allowing growth of the plants to the 3-leaf stage of the barnyard grass, 2,000 l/ha of an emulsion obtained by diluting with water a mixture of 1 part by weight of a test compound, 5 parts by weight of acetone and 1 part by weight of an emulsifying agent (Tween 80, Junsei) was applied to the surface of the foliage of the plants. The plant damage at 10 days and 20 days after the foliage treatment was visually evaluated from the level of 1 to 100% by comparison with the untreated control: […]

| Compound | Plant damage (herbicidal activity), visually evaluated, GLXMA [1] | Plant damage (herbicidal activity), visually evaluated, TRZAW [2] | Plant damage (herbicidal activity), visually evaluated, Barnyard grass (Barnyard grass; 0.025 kg/ha) | Plant damage (herbicidal activity), visually evaluated, Barnyard grass (Barnyard grass; 0.05 kg/ha) | Plant damage (herbicidal activity), visually evaluated, Barnyard grass (Barnyard grass; 0.1 kg/ha) | Plant damage (herbicidal activity), visually evaluated, Barnyard grass (Barnyard grass; 0.4 kg/ha) | pest or weed control at 25 g/ha [4] | pest or weed control at 100 g/ha [4] | pest or weed control at 200 g/ha [4] | pest or weed control at 25 g/ha [5] | pest or weed control at 100 g/ha [5] | pest or weed control at 200 g/ha [5] | plant injury at 25 g/ha [6] | plant injury at 100 g/ha [6] | plant injury at 200 g/ha [6] | pest or weed control at 25 g/ha [7] | pest or weed control at 100 g/ha [7] | pest or weed control at 200 g/ha [7] | pest or weed control at 25 g/ha [8] | pest or weed control at 100 g/ha [8] | also measured |
| --- | --- | --- | --- | --- | --- | --- | --- | --- | --- | --- | --- | --- | --- | --- | --- | --- | --- | --- | --- | --- | --- |
| COc1ccc2nc(NC(=O)[C@@H](C)Oc3ccc(Oc4nc5ccc(Cl)cc5o4)cc3)sc2c1 [Example 13, (R)-2-[4-(6-chloro-2-benzoxazolyloxy)phenoxy]propionic acid-N-(6-methoxy-2-benzothiazolyl)amide] | 0% | 0% | 20% | 50% | 70% | 100% | 50% | 100% | 100% | 20% | 100% | 100% | 40% | 100% | 100% | 30% | 100% | 100% | 75% | 100% | Herbicidal effect (0~100), 20 days, Echinochloa crus-galli var. crus-galli [3]: 80%; Herbicidal effect (0~100), 20 days, Echinochloa oryzicola (Echinochloa oryzicola): 70%; Harmful effect, 20 days (rice (Nampyung rice); 20 days after foliage treatment): 10%; Harmful effect, 30 days (rice (Nampyung rice); 30 days after foliage treatment): 0%; pest or weed control at 200 g/ha [8]: 100%; pest or weed control at 25 g/ha [9]: 70%; pest or weed control at 100 g/ha [9]: 100%; pest or weed control at 200 g/ha [9]: 100%; pest or weed control at 25 g/ha [10]: 50%; pest or weed control at 100 g/ha [10]: 100%; pest or weed control at 200 g/ha [10]: 100% |
| COc1ccc2nc(N(C)C(=O)[C@@H](C)Oc3ccc(Oc4nc5ccc(Cl)cc5o4)cc3)sc2c1 [Example 14, (R)-2-[4-(6-chloro-2-benzoxazolyloxy)phenoxy]propionic acid-N-(6-methoxy-2-benzothiazolyl)-N-methyl amide] | 0% | 0% | 0% | 0% | 10% | 50% | 0% | 20% | 50% | 0% | 20% | 70% | 0% | 10% | 90% | 10% | 50% | 90% | 0% | 20% | Plant damage (herbicidal activity), visually evaluated, ORYSA [11]: 0%; Plant damage (herbicidal activity), visually evaluated, Rice (Rice): 0%; pest or weed control at 200 g/ha [8]: 70%; pest or weed control at 25 g/ha [9]: 0%; pest or weed control at 100 g/ha [9]: 20%; pest or weed control at 200 g/ha [9]: 70%; pest or weed control at 25 g/ha [10]: 0%; pest or weed control at 100 g/ha [10]: 20%; pest or weed control at 200 g/ha [10]: 50% |

— patent US8293774B2, “Optically active (R)-aryloxypropionic acid amides and herbicidal composition comprising same” (Kyung Nong Corporation, priority 2007, dated 2012)
